Reference: the NIST ThermoML archive (doi:10.1021/je900212d)
± gives the expanded uncertainty stated by the source.

Legend:
[1] = 101.33 kPa, Liquid
[2] = xn = mol fraction of the nth substance listed; conditions: 101 kPa, Liquid

ClCCCl [1,2-dichloroethane]
[1]
Conditions	mass density [kg/m3]	viscosity [mPa·s]
288.15 K	1259 ± 8.9	0.87 ± 0.012
293.15 K	1251.9 ± 8.7	0.8112 ± 0.012
298.15 K	1247.4 ± 8.6	0.7597 ± 0.011
303.15 K	1239 ± 8.4	0.7112 ± 0.011
308.15 K	1231.2 ± 8.2	0.6747 ± 0.011
313.15 K	1222 ± 8	0.6269 ± 0.01

ClCCCl [1,2-dichloroethane] + CCCO
[2]
Conditions	mass density [kg/m3]	viscosity [mPa·s]
288.15 K, x2 = 0.1054	1211 ± 15	0.8441 ± 0.012
288.15 K, x2 = 0.2095	1166.4 ± 13	0.8809 ± 0.013
288.15 K, x2 = 0.3124	1121.8 ± 10	0.9238 ± 0.013
288.15 K, x2 = 0.4141	1078.4 ± 8.1	0.998 ± 0.014
288.15 K, x2 = 0.5146	1032.4 ± 5.8	1.1 ± 0.015
288.15 K, x2 = 0.6139	986 ± 4.9	1.256 ± 0.016
288.15 K, x2 = 0.7121	942.8 ± 7	1.464 ± 0.019
288.15 K, x2 = 0.8092	895.4 ± 9.4	1.726 ± 0.022
288.15 K, x2 = 0.9051	843.5 ± 12	2.029 ± 0.025
293.15 K, x2 = 0.1054	1205 ± 14	0.785 ± 0.012
293.15 K, x2 = 0.2096	1159.7 ± 12	0.8086 ± 0.012
293.15 K, x2 = 0.3126	1116.2 ± 10	0.8504 ± 0.012
293.15 K, x2 = 0.4143	1072.1 ± 7.8	0.9115 ± 0.013
293.15 K, x2 = 0.5148	1026.6 ± 5.5	0.9988 ± 0.014
293.15 K, x2 = 0.6141	980.6 ± 5.1	1.139 ± 0.015
293.15 K, x2 = 0.7123	938.6 ± 7.2	1.31 ± 0.017
293.15 K, x2 = 0.8093	890.5 ± 9.6	1.534 ± 0.02
293.15 K, x2 = 0.9052	839.4 ± 12	1.795 ± 0.023
298.15 K, x2 = 0.1054	1199.2 ± 14	0.7324 ± 0.011
298.15 K, x2 = 0.2095	1154.4 ± 12	0.7472 ± 0.011
298.15 K, x2 = 0.3124	1109.3 ± 9.7	0.7831 ± 0.012
298.15 K, x2 = 0.4141	1067.1 ± 7.6	0.8368 ± 0.012
298.15 K, x2 = 0.5146	1021.3 ± 5.2	0.911 ± 0.013
298.15 K, x2 = 0.614	976.2 ± 5.3	1.035 ± 0.014
298.15 K, x2 = 0.7122	934 ± 7.4	1.176 ± 0.015
298.15 K, x2 = 0.8092	885.9 ± 9.8	1.37 ± 0.018
298.15 K, x2 = 0.9052	836.3 ± 12	1.603 ± 0.02
303.15 K, x2 = 0.1056	1192.6 ± 14	0.6845 ± 0.011
303.15 K, x2 = 0.2099	1147.7 ± 12	0.7003 ± 0.011
303.15 K, x2 = 0.3129	1104.2 ± 9.4	0.7255 ± 0.011
303.15 K, x2 = 0.4146	1061.1 ± 7.3	0.7704 ± 0.011
303.15 K, x2 = 0.5151	1016 ± 5	0.8342 ± 0.012
303.15 K, x2 = 0.6144	970.5 ± 5.6	0.9344 ± 0.013
303.15 K, x2 = 0.7125	929.7 ± 7.7	1.061 ± 0.014
303.15 K, x2 = 0.8095	882.6 ± 10	1.228 ± 0.016
303.15 K, x2 = 0.9053	832.8 ± 12	1.441 ± 0.018
308.15 K, x2 = 0.1057	1183.4 ± 13	0.64 ± 0.01
308.15 K, x2 = 0.21	1140.7 ± 11	0.6502 ± 0.01
308.15 K, x2 = 0.3131	1097.2 ± 9.1	0.6731 ± 0.011
308.15 K, x2 = 0.4149	1054.9 ± 6.9	0.7116 ± 0.011
308.15 K, x2 = 0.5154	1009.5 ± 4.6	0.7657 ± 0.011
308.15 K, x2 = 0.6147	964 ± 6	0.8541 ± 0.012
308.15 K, x2 = 0.7128	924.3 ± 7.9	0.9603 ± 0.013
308.15 K, x2 = 0.8097	877.3 ± 10	1.105 ± 0.015
308.15 K, x2 = 0.9054	827.5 ± 13	1.303 ± 0.017
313.15 K, x2 = 0.1058	1174.9 ± 13	0.6002 ± 0.0099
313.15 K, x2 = 0.2103	1133.5 ± 11	0.6056 ± 0.01
313.15 K, x2 = 0.3134	1089 ± 8.7	0.6256 ± 0.01
313.15 K, x2 = 0.4152	1047.4 ± 6.6	0.6588 ± 0.01
313.15 K, x2 = 0.5158	1004 ± 4.4	0.706 ± 0.011
313.15 K, x2 = 0.615	956.7 ± 6.3	0.7849 ± 0.012
313.15 K, x2 = 0.7131	918.9 ± 8.2	0.8728 ± 0.013
313.15 K, x2 = 0.8099	870.1 ± 11	0.9952 ± 0.014
313.15 K, x2 = 0.9055	821.5 ± 13	1.176 ± 0.015

O=Cc1ccccc1 [benzaldehyde]
[1]
Conditions	mass density [kg/m3]	viscosity [mPa·s]
288.15 K	1056 ± 7.7	1.704 ± 0.026
293.15 K	1052.8 ± 7.6	1.558 ± 0.024
298.15 K	1047 ± 7.2	1.427 ± 0.022
303.15 K	1043.2 ± 7.1	1.316 ± 0.021
308.15 K	1039 ± 6.8	1.223 ± 0.019
313.15 K	1034.4 ± 6.6	1.131 ± 0.018
